Reference: ChEMBL document CHEMBL4400520, “Benzofuran-isatin-imine hybrids tethered via different length alkyl linkers: Design, synthesis and in vitro evaluation of anti-tubercular and anti-bacterial activities as well as cytotoxicity” (Eur J Med Chem, 2019)
≈ marks a conversion by molar mass, not a printed value.

Legend:
[1] = test system: Mycobacterium tuberculosis; test: Antitubercular activity against Mycobacterium tuberculosis H37Rv; assay type: functional
[2] = Cytotoxicity against African green monkey Vero cells assessed as reduction in cell viability after 72 hrs by MTT assay; assay type: cell-based; settings: chlorocebus sabaeus, Vero cells
[3] = Selectivity index, ratio of CC50 for African green monkey Vero cells to MIC for Mycobacterium tuberculosis H37Rv; assay type: toxicity; settings: read-out: Selectivity Index
[4] = test system: Staphylococcus epidermidis; test: Antibacterial activity against methicillin-sensitive Staphylococcus epidermidis; assay type: functional
[5] = test system: Staphylococcus epidermidis; test: Antibacterial activity against methicillin-resistant Staphylococcus epidermidis; assay type: functional
Staphylococcus aureus [6] = test: Antibacterial activity against methicillin-sensitive Staphylococcus aureus; assay type: functional
Staphylococcus aureus [7] = test: Antibacterial activity against methicillin-resistant Staphylococcus aureus; assay type: functional
Enterococcus faecalis = test: Antibacterial activity against Enterococcus faecalis; assay type: functional
Enterococcus faecium = test: Antibacterial activity against Enterococcus faecium; assay type: functional
Escherichia coli = test: Antibacterial activity against Escherichia coli; assay type: functional
Klebsiella pneumoniae = test: Antibacterial activity against Klebsiella pneumoniae; assay type: functional
Pseudomonas aeruginosa = test: Antibacterial activity against Pseudomonas aeruginosa ATCC 27853; assay type: functional
[8] = test system: Acinetobacter calcoaceticus; test: Antibacterial activity against Acinetobacter calcoaceticus; assay type: functional
Enterobacter cloacae = test: Antibacterial activity against Enterobacter cloacae; assay type: functional
Klebsiella aerogenes = test: Antibacterial activity against Enterobacter aerogenes; assay type: functional
Proteus mirabilis = test: Antibacterial activity against Proteus mirabilis; assay type: functional
Citrobacter freundii = test: Antibacterial activity against Citrobacter freundii; assay type: functional

SMILES	MIC [1] [µg/mL]	CC50 at 72 h [2] [µg/mL]	selectivity ratio [3]	MIC90 [4] [µg/mL]	MIC90 [5] [µg/mL]	MIC90 (Staphylococcus aureus [6]) [µg/mL]	MIC90 (Staphylococcus aureus [7]) [µg/mL]	MIC90 (Enterococcus faecalis) [µg/mL]	MIC90 (Enterococcus faecium) [µg/mL]	MIC90 (Escherichia coli) [µg/mL]	MIC90 (Klebsiella pneumoniae) [µg/mL]	MIC90 (Pseudomonas aeruginosa) [µg/mL]	MIC90 [8] [µg/mL]	MIC90 (Enterobacter cloacae) [µg/mL]	MIC90 (Klebsiella aerogenes) [µg/mL]	MIC90 (Proteus mirabilis) [µg/mL]	MIC90 (Citrobacter freundii) [µg/mL]
CCOC(=O)c1c(-c2ccc(OC)cc2)oc2ccc(OCCCCCCN3C(=O)/C(=N\NC(N)=S)c4cc(F)ccc43)cc12	< 0.016	8 (≈ 12.6 µM)	> 500	0.5 (≈ 0.79 µM)	2 (≈ 3.16 µM)	1 (≈ 1.58 µM)	1 (≈ 1.58 µM)	1 (≈ 1.58 µM)	32 (≈ 50.6 µM)	0.125 (≈ 0.198 µM)	1 (≈ 1.58 µM)	4 (≈ 6.32 µM)	16 (≈ 25.3 µM)	0.5 (≈ 0.79 µM)	2 (≈ 3.16 µM)	1 (≈ 1.58 µM)	0.25 (≈ 0.395 µM)
CCOC(=O)c1c(-c2ccc(OC)cc2)oc2ccc(OCCCCCCN3C(=O)/C(=N\OC)c4cc(F)ccc43)cc12	< 0.016	16 (≈ 27.2 µM)	> 1000	0.5 (≈ 0.849 µM)	16 (≈ 27.2 µM)	4 (≈ 6.8 µM)	4 (≈ 6.8 µM)	2 (≈ 3.4 µM)	16 (≈ 27.2 µM)	0.25 (≈ 0.425 µM)	2 (≈ 3.4 µM)	8 (≈ 13.6 µM)	4 (≈ 6.8 µM)	0.5 (≈ 0.849 µM)	0.5 (≈ 0.849 µM)	0.125 (≈ 0.212 µM)	0.5 (≈ 0.849 µM)
CCOC(=O)c1c(-c2ccc(OC)cc2)oc2ccc(OCCCCCCN3C(=O)/C(=N\OC)c4ccccc43)cc12	< 0.016	32 (≈ 56.1 µM)	> 2000	0.5 (≈ 0.876 µM)	8 (≈ 14 µM)	2 (≈ 3.5 µM)	2 (≈ 3.5 µM)	4 (≈ 7.01 µM)	16 (≈ 28 µM)	0.125 (≈ 0.219 µM)	4 (≈ 7.01 µM)	2 (≈ 3.5 µM)	4 (≈ 7.01 µM)	0.125 (≈ 0.219 µM)	0.25 (≈ 0.438 µM)	0.125 (≈ 0.219 µM)	0.125 (≈ 0.219 µM)
CCO/N=C1\C(=O)N(CCCCOc2ccc3oc(-c4ccc(OC)cc4)c(C(=O)OCC)c3c2)c2ccccc21	< 0.016	64 (≈ 115 µM)	> 4000	0.5 (≈ 0.898 µM)	2 (≈ 3.59 µM)	1 (≈ 1.8 µM)	1 (≈ 1.8 µM)	4 (≈ 7.19 µM)	64 (≈ 115 µM)	1 (≈ 1.8 µM)	2 (≈ 3.59 µM)	2 (≈ 3.59 µM)	0.5 (≈ 0.898 µM)	1 (≈ 1.8 µM)	2 (≈ 3.59 µM)	2 (≈ 3.59 µM)	2 (≈ 3.59 µM)
CCO/N=C1\C(=O)N(CCCCCOc2ccc3oc(-c4ccc(OC)cc4)c(C(=O)OCC)c3c2)c2ccc(F)cc21	0.031 (≈ 0.0527 µM)	32 (≈ 54.4 µM)	1030	1 (≈ 1.7 µM)	4 (≈ 6.8 µM)	8 (≈ 13.6 µM)	4 (≈ 6.8 µM)	4 (≈ 6.8 µM)	32 (≈ 54.4 µM)	0.125 (≈ 0.212 µM)	4 (≈ 6.8 µM)	4 (≈ 6.8 µM)	8 (≈ 13.6 µM)	0.25 (≈ 0.425 µM)	0.5 (≈ 0.849 µM)	0.25 (≈ 0.425 µM)	0.125 (≈ 0.212 µM)
CCOC(=O)c1c(-c2ccc(OC)cc2)oc2ccc(OCCCCCN3C(=O)/C(=N\O)c4ccccc43)cc12	0.062 (≈ 0.114 µM)	64 (≈ 118 µM)	1030	0.25 (≈ 0.461 µM)	4 (≈ 7.37 µM)	2 (≈ 3.69 µM)	2 (≈ 3.69 µM)	2 (≈ 3.69 µM)	8 (≈ 14.7 µM)	0.25 (≈ 0.461 µM)	1 (≈ 1.84 µM)	4 (≈ 7.37 µM)	2 (≈ 3.69 µM)	1 (≈ 1.84 µM)	0.5 (≈ 0.922 µM)	0.25 (≈ 0.461 µM)	0.5 (≈ 0.922 µM)
CCOC(=O)c1c(-c2ccc(F)cc2)oc2ccc(OCCCCCCN3C(=O)/C(=N\OC)c4cc(F)ccc43)cc12	0.218 (≈ 0.378 µM)	16 (≈ 27.7 µM)	73	0.25 (≈ 0.434 µM)	8 (≈ 13.9 µM)	2 (≈ 3.47 µM)	1 (≈ 1.73 µM)	1 (≈ 1.73 µM)	8 (≈ 13.9 µM)	0.5 (≈ 0.867 µM)	2 (≈ 3.47 µM)	2 (≈ 3.47 µM)	4 (≈ 6.94 µM)	0.25 (≈ 0.434 µM)	0.25 (≈ 0.434 µM)	0.125 (≈ 0.217 µM)	0.125 (≈ 0.217 µM)
NNC(=O)c1ccncc1 [ISONIAZID]	0.078 (≈ 0.569 µM)	256 (≈ 1870 µM)	3280														
CO[C@H]1/C=C/O[C@@]2(C)Oc3c(C)c(O)c4c(O)c(c(/C=N/N5CCN(C)CC5)c(O)c4c3C2=O)NC(=O)/C(C)=C\C=C\[C@H](C)[C@H](O)[C@@H](C)[C@@H](O)[C@@H](C)[C@H](OC(C)=O)[C@@H]1C [RIFAMPIN]	0.078 (≈ 0.0948 µM)		6560														
CN[C@H](CC(C)C)C(=O)N[C@H]1C(=O)N[C@@H](CC(N)=O)C(=O)N[C@H]2C(=O)N[C@H]3C(=O)N[C@H](C(=O)N[C@H](C(=O)O)c4cc(O)cc(O)c4-c4cc3ccc4O)[C@H](O)c3ccc(c(Cl)c3)Oc3cc2cc(c3O[C@@H]2O[C@H](CO)[C@@H](O)[C@H](O)[C@H]2O[C@H]2C[C@](C)(N)[C@H](O)[C@H](C)O2)Oc2ccc(cc2Cl)[C@H]1O [VANCOMYCIN]				1 (≈ 0.69 µM)	1 (≈ 0.69 µM)	0.5 (≈ 0.345 µM)	1 (≈ 0.69 µM)	4 (≈ 2.76 µM)	1 (≈ 0.69 µM)								
